Read-outs that look alike come from different tables or passages of the source.

One test addresses human PDE2A1 (Homo sapiens (Human), UniProt O00408). The experiment in a line: IMAP FP PDE selectivity panel, human PDE2A1. The class given is biochemical. A digest of the protocol:
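GST-tagged human PDE2A1 expressed in insect cells, run at room temperature for 60 min with 50 nM FAM-cAMP containing 1000 nM cGMP, pH 7.2 Tris/MgCl2 buffer. IMAP fluorescence polarization read after binding step.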

The next test has as its target Rhesus PDE2A3 (Macaca mulatta, UniProt B3VTJ2). Put plainly: PDE2 fluorescence polarization (IMAP FP) inhibition assay, rhesus enzyme. The class given is biochemical, rhesus macaque. A digest of the protocol: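 Rhesus PDE2A3 came from lysate of transiently transfected AD293 cells, diluted to give 20% substrate conversion. Substrate was 50 nM FAM-cAMP with 1 uM cGMP activator in Tris pH 7.2/MgCl2 buffer, run 60 min at room temperature over 10-point 3-fold dilutions in 1% DMSO. Read-out was IMAP fluorescence polarization (mP) after ≥1 h binding.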

Setting [1] is: Human PDE2, Lab B, read-out: Human PDE2 Ki (nM) - Lab B.
Setting [2] is: Rhesus PDE2, Lab B, read-out: Rhesus PDE2 Ki (nM) - Lab B.
Where [3] appears, read: Human PDE2, Lab A, read-out: Human PDE2 Ki (nM) - Lab A.
Where [4] appears, read: Rhesus PDE2, Lab A, read-out: Rhesus PDE2 Ki (nM) - Lab A.

human PDE2A1, sequence (O00408 other isoform, or with tags, fused parts or gaps): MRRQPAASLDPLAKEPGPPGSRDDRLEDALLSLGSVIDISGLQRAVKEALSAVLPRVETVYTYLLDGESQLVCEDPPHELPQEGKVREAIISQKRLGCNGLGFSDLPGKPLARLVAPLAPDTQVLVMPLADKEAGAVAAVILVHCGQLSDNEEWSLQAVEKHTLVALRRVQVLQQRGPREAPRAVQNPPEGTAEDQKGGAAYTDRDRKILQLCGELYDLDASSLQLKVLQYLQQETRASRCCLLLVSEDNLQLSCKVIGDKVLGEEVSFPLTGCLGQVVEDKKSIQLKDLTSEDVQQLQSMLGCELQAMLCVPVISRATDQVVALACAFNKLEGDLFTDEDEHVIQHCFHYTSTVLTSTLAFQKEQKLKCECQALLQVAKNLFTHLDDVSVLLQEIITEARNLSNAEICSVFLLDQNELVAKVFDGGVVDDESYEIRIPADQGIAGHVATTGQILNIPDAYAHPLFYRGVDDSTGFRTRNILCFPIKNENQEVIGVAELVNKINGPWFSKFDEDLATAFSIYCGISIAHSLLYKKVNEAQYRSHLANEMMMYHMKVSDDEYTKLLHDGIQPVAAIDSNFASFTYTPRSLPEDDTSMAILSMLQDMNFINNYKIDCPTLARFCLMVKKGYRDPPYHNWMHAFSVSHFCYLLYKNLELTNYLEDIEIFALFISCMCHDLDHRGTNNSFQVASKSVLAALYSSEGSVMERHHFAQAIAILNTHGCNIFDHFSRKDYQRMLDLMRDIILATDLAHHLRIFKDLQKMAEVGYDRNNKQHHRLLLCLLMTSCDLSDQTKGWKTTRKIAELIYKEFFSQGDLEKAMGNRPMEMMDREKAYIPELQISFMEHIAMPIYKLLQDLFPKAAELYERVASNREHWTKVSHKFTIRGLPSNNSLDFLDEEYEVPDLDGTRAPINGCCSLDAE
Rhesus PDE2A3, sequence (B3VTJ2 1-941): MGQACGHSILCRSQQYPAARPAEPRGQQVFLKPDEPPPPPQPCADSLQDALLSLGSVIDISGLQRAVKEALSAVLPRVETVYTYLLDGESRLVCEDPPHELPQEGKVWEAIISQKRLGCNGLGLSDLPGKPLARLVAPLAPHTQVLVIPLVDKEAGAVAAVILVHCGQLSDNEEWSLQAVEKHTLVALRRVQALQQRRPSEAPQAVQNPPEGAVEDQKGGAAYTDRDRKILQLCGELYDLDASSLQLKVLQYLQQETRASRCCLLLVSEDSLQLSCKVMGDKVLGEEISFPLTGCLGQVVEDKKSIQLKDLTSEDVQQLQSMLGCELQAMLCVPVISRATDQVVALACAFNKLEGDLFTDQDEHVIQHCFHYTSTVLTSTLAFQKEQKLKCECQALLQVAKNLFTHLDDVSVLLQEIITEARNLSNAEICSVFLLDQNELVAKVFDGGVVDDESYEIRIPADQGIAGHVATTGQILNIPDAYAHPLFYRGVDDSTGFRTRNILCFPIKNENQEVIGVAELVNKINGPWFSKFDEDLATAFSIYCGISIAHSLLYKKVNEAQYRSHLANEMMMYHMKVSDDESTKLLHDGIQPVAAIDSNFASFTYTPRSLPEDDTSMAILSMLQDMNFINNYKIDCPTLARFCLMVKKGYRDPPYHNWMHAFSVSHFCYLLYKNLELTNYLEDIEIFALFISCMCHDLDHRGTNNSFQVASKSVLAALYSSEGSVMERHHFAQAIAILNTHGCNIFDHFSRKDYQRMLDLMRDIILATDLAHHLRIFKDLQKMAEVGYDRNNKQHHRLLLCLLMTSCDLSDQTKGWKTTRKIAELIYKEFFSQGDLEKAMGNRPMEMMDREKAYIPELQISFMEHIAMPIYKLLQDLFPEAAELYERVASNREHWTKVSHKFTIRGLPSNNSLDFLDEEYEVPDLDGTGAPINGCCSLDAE

As for `CC[C@@H](NC(=O)c1cc(=O)[nH]c(Cc2ccc(OC)cc2)n1)c1ccc(C(F)(F)F)c(F)c1` [Example 483, N-{(1R)-1-[3-fluoro-4-(trifluoromethyl)phenyl]propyl}-2-(4-methoxybenzyl)-6-oxo-1,6-dihydropyrimidine-4-carboxamide], the Ki at human PDE2A1 (setting [1]) amounted to 2.9 nM; on Rhesus PDE2A3 (setting [2]) it was 3 nM.

As to `CCc1ccc(C(C)NC(=O)c2cc(=O)[nH]c(-c3ccccc3)n2)cc1` (stereo not shown) [Example 165, N-[1-(4-ethylphenyl)ethyl]-6-oxo-2-phenyl-1,6-dihydropyrimidine-4-carboxamide], the Ki was found to be 12 nM at human PDE2A1 (setting [3]) and 16 nM on Rhesus PDE2A3 (setting [4]).

For the compound `CC(C)(C)[C@@H](NC(=O)c1cc(=O)[nH]c(-c2ccccc2)n1)c1ccc(OC(F)(F)F)cc1` [Example 462, N-{(1R)-2,2-dimethyl-1-[4-(trifluoromethoxy)phenyl]propyl}-6-oxo-2-phenyl-1,6-dihydropyrimidine-4-carboxamide], the figures for the Ki at human PDE2A1 (setting [1]) and at Rhesus PDE2A3 (setting [2]) were 1.5 nM and 1.4 nM, respectively.

Regarding `C[C@@H](NC(=O)c1cc(=O)[nH]c(-c2ccccc2)n1)c1ccc(C(F)(F)F)cc1` [Example 274, 6-oxo-2-phenyl-N-{(1R)-1-[4-(trifluoromethyl)phenyl]ethyl}-1,6-dihydropyrimidine-4-carboxamide], the Ki on human PDE2A1 (setting [3]) and on Rhesus PDE2A3 (setting [4]) was 6.7 nM in each case.

`CC(C)(C)[C@@H](NC(=O)c1cc(=O)[nH]c(C2CC2)n1)c1ccc(C2CC2)c(F)c1` [Example 435, 2-cyclopropyl-N-[(1R)-1-(4-cyclopropyl-3-fluorophenyl)-2,2-dimethylpropyl]-6-oxo-1,6-dihydropyrimidine-4-carboxamide]: the results for the Ki on human PDE2A1 (setting [1]) and on Rhesus PDE2A3 (setting [2]) were 0.78 nM and 1.1 nM, respectively.

As for `CC(C)[C@@H](NC(=O)c1cc(=O)[nH]c(C2CC2)n1)c1ccc(C(F)(F)F)c(F)c1` [Example 251, 2-cyclopropyl-N-{(1R)-1-[3-fluoro-4-(trifluoromethyl)phenyl]-2-methylpropyl}-6-oxo-1,6-dihydropyrimidine-4-carboxamide], the Ki stood at 3.6 nM at human PDE2A1 (setting [1]), 2 nM at Rhesus PDE2A3 (setting [4]) and 4 nM at Rhesus PDE2A3 (setting [2]).

Take `CSCC(NC(=O)c1cc(=O)[nH]c(C)n1)c1ccc(C(F)(F)F)cc1` (stereo not shown) [Example 131, 2-methyl-N-{2-(methylsulfanyl)-1-[4-(trifluoromethyl)phenyl]ethyl}-6-oxo-1,6-dihydropyrimidine-4-carboxamide]: the Ki at human PDE2A1 (setting [3]) amounted to 123 nM; on Rhesus PDE2A3 (setting [4]) it was 170 nM.

Consider `CC(C)[C@@H](NC(=O)c1cc(=O)[nH]c(-c2ncccn2)n1)c1ccc(C(F)(F)F)cc1` [Example 73, N-{(1R)-2-methyl-1-[4-(trifluoromethyl)phenyl]propyl}-6-oxo-1,6-dihydro-2,2′-bipyrimidine-4-carboxamide], for which the values for the Ki on human PDE2A1 (setting [1]), on Rhesus PDE2A3 (setting [4]) and at Rhesus PDE2A3 (setting [2]) were 5.3 nM, 4.1 nM and 4.9 nM, respectively.

With `O=C(NC1(c2ccc(SC(F)(F)F)c(F)c2)CC1)c1cc(=O)[nH]c(-c2ccccc2)n1` [Example 352, N-(1-{3-fluoro-4-[(trifluoromethyl)sulfanyl]phenyl}cyclopropyl)-6-oxo-2-phenyl-1,6-dihydropyrimidine-4-carboxamide], the Ki on human PDE2A1 (setting [1]) amounted to 54 nM; on Rhesus PDE2A3 (setting [4]) it was 15 nM; on Rhesus PDE2A3 (setting [2]), 51 nM.

Take `Cc1nc(C(=O)NC2(c3ccc(C(C)(C)C)cc3)CC2)cc(=O)[nH]1` [Example 623, N-[1-(4-tert-butylphenyl)cyclopropyl]-2-methyl-6-oxo-1,6-dihydropyrimidine-4-carboxamide]: the Ki at human PDE2A1 (setting [1]) is 31 nM; at Rhesus PDE2A3 (setting [2]) it was 29 nM.

Take `Cc1nc(C(=O)N[C@@H](c2ccc(OC(F)F)cc2)C2(C)CC2)cc(=O)[nH]1` [Example 425, N-[(R)-[4-(difluoromethoxy)phenyl](1-methylcyclopropyl)methyl]-2-methyl-6-oxo-1,6-dihydropyrimidine-4-carboxamide]: the values for the inhibition constant Ki at human PDE2A1 (setting [1]) and on Rhesus PDE2A3 (setting [2]) were 30 nM and 29 nM, respectively.

As for `C[C@@H](NC(=O)c1nc(C2CCC2)[nH]c(=O)c1C1CCC1)c1ccc(C(F)(F)F)cc1` [Example 335, (R)-2,5-dicyclobutyl-6-oxo-N-(1-(4-(trifluoromethyl)phenyl)ethyl)-1,6-dihydropyrimidine-4-carboxamide], the Ki at human PDE2A1 (setting [3]) was found to be 1220 nM; on Rhesus PDE2A3 (setting [4]) it was 1320 nM.

`CC(C)(C)[C@@H](NC(=O)c1cc(=O)[nH]c(-c2ncccn2)n1)c1ccc(OC(F)(F)F)cc1` [Example 461, N-{(1R)-2,2-dimethyl-1-[4-(trifluoromethoxy)phenyl]propyl}-6-oxo-1,6-dihydro-2,2′-bipyrimidine-4-carboxamide]: the Ki on human PDE2A1 (setting [1]) is 7.8 nM; on Rhesus PDE2A3 (setting [2]) it was 7.5 nM.

Turning to `COc1ccc(Cc2nc(C(=O)N[C@@H](c3ccc(SC(F)(F)F)c(F)c3)C3CC3)cc(=O)[nH]2)cc1F` [Example 520, N-[(R)-cyclopropyl{3-fluoro-4-[(trifluoromethyl)sulfanyl]phenyl}methyl]-2-(3-fluoro-4-methoxybenzyl)-6-oxo-1,6-dihydropyrimidine-4-carboxamide], the Ki at human PDE2A1 (setting [1]) came out at 3.6 nM; at Rhesus PDE2A3 (setting [2]), 3.8 nM.

Turning to `COc1ccc(Cc2nc(C(=O)N[C@@H](c3ccc(OC(F)(F)F)c(F)c3)C3CC3)cc(=O)[nH]2)cc1` [Example 478, N-{(R)-cyclopropyl[3-fluoro-4-(trifluoromethoxy)phenyl]methyl}-2-(4-methoxybenzyl)-6-oxo-1,6-dihydropyrimidine-4-carboxamide], the inhibition constant (Ki) worked out at 1.7 nM on human PDE2A1 (setting [1]) and 2.1 nM on Rhesus PDE2A3 (setting [2]).

On to `O=C(NC1(c2ccc(C(F)(F)F)c(F)c2)CC1)c1cc(=O)[nH]c(-c2ncccn2)n1` [Example 76, N-{1-[3-fluoro-4-(trifluoromethyl)phenyl]cyclopropyl}-6-oxo-1,6-dihydro-2,2′-bipyrimidine-4-carboxamide], for which the Ki turned out to be 21 nM at human PDE2A1 (setting [1]), 17 nM at Rhesus PDE2A3 (setting [4]) and 18 nM at Rhesus PDE2A3 (setting [2]).

With `COc1ccc(Cc2nc(C(=O)N[C@@H](c3ccc(S(F)(F)(F)(F)F)cc3)C(C)C)cc(=O)[nH]2)cc1F` [Example 513, 2-(3-fluoro-4-methoxybenzyl)-N-{(1R)-2-methyl-1-[4-(pentafluoro-λ^6-sulfanyl)phenyl]propyl}-6-oxo-1,6-dihydropyrimidine-4-carboxamide], the Ki on human PDE2A1 (setting [1]) came out at 1.9 nM; on Rhesus PDE2A3 (setting [2]), 2.1 nM.

Regarding `Cc1nc(C(=O)N[C@@H](c2ccc(SC(F)(F)F)cc2)C(C)(C)C)cc(=O)[nH]1` [Example 58, (R)-N-(2,2-dimethyl-1-(4-((trifluoromethyl)thio)phenyl)propyl)-2-methyl-6-oxo-1,6-dihydropyrimidine-4-carboxamide], the Ki on human PDE2A1 (setting [1]) was found to be 1.7 nM; on Rhesus PDE2A3 (setting [2]), 2.5 nM.

Consider `C[C@@H](NC(=O)c1cc(=O)[nH]c(C2CC2)n1)c1ccc(-c2ccccc2)cc1` [Example 144, N-[(1R)-1-biphenyl-4-ylethyl]-2-cyclopropyl-6-oxo-1,6-dihydropyrimidine-4-carboxamide], for which the Ki came to 6 nM on human PDE2A1 (setting [3]) and 16 nM at Rhesus PDE2A3 (setting [4]).

As for `COc1ccc(C(C)(C)c2nc(C(=O)N[C@@H](c3ccc(OC(F)(F)F)c(F)c3)C3CC3)cc(=O)[nH]2)cc1` [Example 498, N-{(R)-cyclopropyl[3-fluoro-4-(trifluoromethoxy)phenyl]methyl}-2-[1-(4-methoxyphenyl)-1-methylethyl]-6-oxo-1,6-dihydropyrimidine-4-carboxamide], the Ki was determined as 49 nM at human PDE2A1 (setting [1]) and 65 nM at Rhesus PDE2A3 (setting [2]).

As for `CC[C@@H](NC(=O)c1cc(=O)[nH]c(C)n1)c1ccc(S(F)(F)(F)(F)F)cc1` [Example 51, 2-methyl-6-oxo-N-{(1R)-1-[4-(pentafluoro-λ^6-sulfanyl)phenyl]propyl}-1,6-dihydropyrimidine-4-carboxamide], the inhibition constant Ki was approximately 6.1 nM on human PDE2A1 (setting [3]), 20 nM on human PDE2A1 (setting [1]), 18 nM at Rhesus PDE2A3 (setting [4]) and 18 nM at Rhesus PDE2A3 (setting [2]).

In the case of `C[C@@H](O)[C@@H](NC(=O)c1cc(=O)[nH]c(-c2ccccc2)n1)c1ccc(C(F)(F)F)cc1` [Example 392, N-{(1S,2R)-2-hydroxy-1-[4-(trifluoromethyl)phenyl]propyl}-6-oxo-2-phenyl-1,6-dihydropyrimidine-4-carboxamide], the Ki on human PDE2A1 (setting [1]) was found to be 3.3 nM; at Rhesus PDE2A3 (setting [2]), 5.5 nM.

On to `Cc1nc(C(=O)N[C@H](C)c2ccc(CC(F)(F)F)cc2)cc(=O)[nH]1` [Example 45, 2-methyl-6-oxo-N-{(1R)-1-[4-(2,2,2-trifluoroethyl)phenyl]ethyl}-1,6-dihydropyrimidine-4-carboxamide], for which the Ki on human PDE2A1 (setting [3]) worked out at 35 nM; at Rhesus PDE2A3 (setting [4]), 52 nM.

As to `O=C(N[C@@H](c1ccc(S(F)(F)(F)(F)F)cc1)C1CC1)c1cc(=O)[nH]c(C2CC2)n1` [Example 397, 2-cyclopropyl-N-{(R)-cyclopropyl[4-(pentafluoro-λ^6-sulfanyl)phenyl]methyl}-6-oxo-1,6-dihydropyrimidine-4-carboxamide], the results for the inhibition constant (Ki) on human PDE2A1 (setting [1]) and on Rhesus PDE2A3 (setting [2]) were 8.6 nM and 8.2 nM, respectively.

In the case of `CC[C@@H](NC(=O)c1cc(=O)[nH]c(C2CC2)n1)c1ccc(SC(F)(F)F)cc1` [Example 236, 2-cyclopropyl-6-oxo-N-[(1R)-1-{4-[(trifluoromethyl)sulfanyl]phenyl}propyl]-1,6-dihydropyrimidine-4-carboxamide], the values for the inhibition constant (Ki) at human PDE2A1 (setting [3]) and at Rhesus PDE2A3 (setting [4]) were 5.5 nM and 4.3 nM, respectively.

For the compound `O=C(NC(CO)c1ccc(C(F)(F)F)cc1)c1cc(=O)[nH]c(-c2ccccc2)n1` (stereo not shown) [Example 185, N-{2-hydroxy-1-[4-(trifluoromethyl)phenyl]ethyl}-6-oxo-2-phenyl-1,6-dihydropyrimidine-4-carboxamide], the Ki on human PDE2A1 (setting [3]) was found to be 9.7 nM; at Rhesus PDE2A3 (setting [4]), 13 nM.
